Reference: ChEMBL document CHEMBL3616406, “Soluble epoxide hydrolase inhibitory activity of anthraquinone components from Aloe” (Bioorg Med Chem, 2015)
Calls of active or inactive are those of the source. The rule behind the calls is not given here.

Legend:
[1] = biological target: T1, Bifunctional epoxide hydrolase 2 (Homo sapiens, UniProt P34913); assay: Non-competitive inhibition of sEH (unknown origin) using PHOME as substrate assessed as formation of 6-methoxy-2-naphthaldehyde measured during 30 mins by Dixon plot analysis
T1 sequence (P34913 whole entry): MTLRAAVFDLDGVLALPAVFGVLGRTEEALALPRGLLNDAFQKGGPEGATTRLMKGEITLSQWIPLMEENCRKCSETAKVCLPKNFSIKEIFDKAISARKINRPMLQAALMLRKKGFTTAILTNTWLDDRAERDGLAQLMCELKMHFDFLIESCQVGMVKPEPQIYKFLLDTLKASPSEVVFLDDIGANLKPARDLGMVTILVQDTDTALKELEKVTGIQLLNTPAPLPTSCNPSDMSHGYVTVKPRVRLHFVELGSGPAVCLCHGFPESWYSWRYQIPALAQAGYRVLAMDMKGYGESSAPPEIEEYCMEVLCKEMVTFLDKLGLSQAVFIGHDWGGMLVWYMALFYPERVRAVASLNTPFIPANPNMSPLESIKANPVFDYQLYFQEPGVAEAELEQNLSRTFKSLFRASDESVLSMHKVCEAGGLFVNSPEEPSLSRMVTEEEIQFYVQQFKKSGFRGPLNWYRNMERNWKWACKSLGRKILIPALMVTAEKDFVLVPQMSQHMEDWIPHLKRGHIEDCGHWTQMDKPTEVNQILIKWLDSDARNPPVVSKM

[2] = biological target: T1, Bifunctional epoxide hydrolase 2; assay: Inhibition of sEH (unknown origin) using PHOME as substrate assessed as formation of 6-methoxy-2-naphthaldehyde measured during 1 hr by fluorescence photometric analysis
[3] = biological target: T2, Bifunctional epoxide hydrolase 2 (Homo sapiens) (UniProt P34913); assay: Inhibition of sEH (unknown origin) using PHOME as substrate assessed as formation of 6-methoxy-2-naphthaldehyde at 100 uM measured during 1 hr by fluorescence photometric analysis relative to control
T2 sequence (whole entry): T1 sequence (P34913 whole entry)

[4] = biological target: T2, Bifunctional epoxide hydrolase 2 (Homo sapiens); assay: Non-competitive inhibition of sEH (unknown origin) using PHOME as substrate assessed as formation of 6-methoxy-2-naphthaldehyde measured during 30 mins by Lineweaver-Burk plot analysis
[5] = biological target: T1, Bifunctional epoxide hydrolase 2; assay: Mixed-type inhibition of sEH (unknown origin) using PHOME as substrate assessed as formation of 6-methoxy-2-naphthaldehyde measured during 30 mins by Dixon plot analysis
[6] = biological target: T2, Bifunctional epoxide hydrolase 2 (Homo sapiens); assay: Mixed-type inhibition of sEH (unknown origin) using PHOME as substrate assessed as formation of 6-methoxy-2-naphthaldehyde measured during 30 mins by Lineweaver-Burk plot analysis

Structure (SMILES)	Ki [1]	IC50 [2]	inhibition [3]	inhibition [4]	Ki [5]	inhibition [6]
O=C1c2cc(CO)cc(O)c2C(=O)c2c1ccc([C@]1([C@@H]3O[C@H](CO)[C@@H](O)[C@H](O)[C@H]3O)c3cccc(O)c3C(=O)c3c(O)cc(CO)cc31)c2O	15.5 µM	4.1 µM	93.1%	Active	–	–
O=C1c2c(O)cccc2[C@@H]([C@@H]2O[C@H](CO)[C@@H](O)[C@H](O)[C@H]2O)c2cc(CO)cc(O)c21	–	41.1 µM	62.8%	–	27.8 µM	Active
O=C1c2c(O)cccc2C([C@@H]2O[C@H](CO)[C@@H](O)[C@H](O)[C@H]2O)c2cc(CO)cc(O)c21 (some centres not stated) [ALOIN]	–	37.4 µM	73.9%	–	57.3 µM	Active
O=C1c2cccc(O)c2C(=O)c2c(O)cc(CO)cc21 [ALOE-EMODIN]	52.2 µM	26.8 µM	79.9%	Active	–	–
C[C@@H]1O[C@@H](OCc2cc(O)c3c(c2)[C@H]([C@@H]2O[C@H](CO)[C@@H](O)[C@H](O)[C@H]2O)c2cccc(O)c2C3=O)[C@H](O)[C@H](O)[C@H]1O	–	20.2 µM	86.9%	–	2 µM	Active
Cc1cc(O)c2c(c1)[C@H]([C@@H]1O[C@H](CO)[C@@H](O)[C@H](O)[C@H]1O)c1cccc(O)c1C2=O	–	15.6 µM	90.5%	–	0.2 µM	Active
C[C@@H]1O[C@@H](OCc2cc(O)c3c(c2)[C@](O)([C@@H]2O[C@H](CO)[C@@H](O)[C@H](O)[C@H]2O)c2cccc(O)c2C3=O)[C@H](O)[C@H](O)[C@H]1O	–	12.5 µM	109%	–	10.4 µM	Active
C[C@@H]1O[C@@H](OCc2cc(O)c3c(c2)[C@H]([C@@H]2OC[C@@H](O)[C@H](O)[C@H]2O)c2cccc(O)c2C3=O)[C@H](O)[C@H](O)[C@H]1O	0.8 µM	13.8 µM	87%	Active	–	–
